Assay results as given in publication PMC10233829 (ACS Omega, 2023).

Compound: O=C(O)c1cn(C2CC2)c2cc(N3CCN(C(=O)CCCCBr)CC3)c(F)cc2c1=O [Compound 11, 7-[4-(5-Bromopentanoyl)-piperazin-1-yl]-1-cyclopropyl-6-fluoro-4-oxo-1,4-dihydro-quinoline-3-carboxylic Acid]
- melting point: 225.7 to 226.2 °C
